According to US20230312550A1, “N-(2-(4-CYANOTHIAZOLIDIN-3-YL)-2-OXOETHYL)-QUINOLINE-4-CARBOXAMIDES” (AstraZeneca AB, priority 2020, published 2023):
Converted amounts (≈) assume the structure as drawn.

Assays:
[1] = target: Prolyl endopeptidase, Prolyl Oligopeptidase (hPREP) (Homo sapiens (Human), UniProt P48147); assay: hPrep inhibition assay; format: biochemical; settings: hPREP 0.6 nM, Z-Gly-Pro-amino-methylcoumarin 50 μM; read-out: PREP IC50
Experimental: Compounds were tested in a biochemical inhibition assay using Prolyl endopeptidase, Prolyl Oligopeptidase (hPREP) enzyme at 0.6 nM FAC (R&D Systems, 4308-SE) and the substrate Z-Gly-Pro-amino-methylcoumarin (Bachem, I-1145) at 50 μM FAC. 384 Low volume black plates (Greiner #784076) were used. […] Plates were incubated for 15 min at rt in dark. 4 μL, 100 μM substrate solution (25 mM Tris HCl, 250 mM NaCl, 0.01% Triton X-100, 5 mM Glutathione, pH 7.5) was added to each well. Plates were centrifuged at 1000 rpm and incubated for 20 min at rt in dark. The plates were read on a PHERAstar® reader with excitation 340 nm and emission 460 nm. Data were analyzed in Genedata Screener®. IC50 values were determined by plotting % inhibition versus log compound concentration and using a one site dose response model.

[2] = target: human Fibroblast activation protein alpha (hFAP) (Homo sapiens (Human), UniProt Q12884); assay: hFAP inhibition assay (tight binders); format: biochemical; settings: Ala-Pro-AMC 20 μM, n = 1 or geometric mean n = 2-6; further: hFAP 2.4 pM
Sequence of human Fibroblast activation protein alpha (hFAP) (Q12884 38-760): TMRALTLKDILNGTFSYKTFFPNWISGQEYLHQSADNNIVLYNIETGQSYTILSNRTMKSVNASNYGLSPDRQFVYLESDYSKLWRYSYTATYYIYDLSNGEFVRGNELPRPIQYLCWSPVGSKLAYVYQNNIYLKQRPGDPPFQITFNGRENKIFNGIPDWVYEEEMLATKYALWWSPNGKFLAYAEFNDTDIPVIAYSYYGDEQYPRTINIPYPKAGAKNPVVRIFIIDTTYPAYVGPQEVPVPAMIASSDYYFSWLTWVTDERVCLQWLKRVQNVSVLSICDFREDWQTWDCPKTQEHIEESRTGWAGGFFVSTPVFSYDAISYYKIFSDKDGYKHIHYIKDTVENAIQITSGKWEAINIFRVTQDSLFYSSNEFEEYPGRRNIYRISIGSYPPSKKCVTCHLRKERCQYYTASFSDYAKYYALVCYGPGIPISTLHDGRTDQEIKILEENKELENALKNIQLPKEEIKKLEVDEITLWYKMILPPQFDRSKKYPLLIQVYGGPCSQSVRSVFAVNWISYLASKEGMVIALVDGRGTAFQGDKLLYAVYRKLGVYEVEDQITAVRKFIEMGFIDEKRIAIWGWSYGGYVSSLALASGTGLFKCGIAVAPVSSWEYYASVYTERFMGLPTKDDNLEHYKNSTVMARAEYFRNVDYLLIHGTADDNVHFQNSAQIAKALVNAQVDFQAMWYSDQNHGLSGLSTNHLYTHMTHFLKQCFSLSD
Experimental: The plates were read on a PHERAstar® reader with excitation 340 nm and emission 460 nm. Data were analyzed in Genedata Screener®. IC50 values were determined by plotting % inhibition versus log compound concentration and using a one site dose response model.

Kinetic solubility = settings: kinetic from dmso stock, Solubility, kinetic solubility; n = 1 or average of n = 2-3
Experimental: Kinetic solubility was measured as described in Comput Aided Mol Des 2015, 29, 795.

[3] = Metabolic stability in rat hepatocytes (rHep); settings: n = 1 or geometric mean of n = 2-3
hFAP (M39-A757) = hFAP (M39-A757) (Homo sapiens (Human), UniProt Q12884); assay: hFAP binding assay (surface plasmon resonance); settings: SPR, 20° C.; for hFAP Binding assay k(off) / hFAP Binding assay k(on): single cycle kinetics; for Kd: n = 1 or geometric mean n = 2-4
Sequence of hFAP (M39-A757) (Q12884 39-757): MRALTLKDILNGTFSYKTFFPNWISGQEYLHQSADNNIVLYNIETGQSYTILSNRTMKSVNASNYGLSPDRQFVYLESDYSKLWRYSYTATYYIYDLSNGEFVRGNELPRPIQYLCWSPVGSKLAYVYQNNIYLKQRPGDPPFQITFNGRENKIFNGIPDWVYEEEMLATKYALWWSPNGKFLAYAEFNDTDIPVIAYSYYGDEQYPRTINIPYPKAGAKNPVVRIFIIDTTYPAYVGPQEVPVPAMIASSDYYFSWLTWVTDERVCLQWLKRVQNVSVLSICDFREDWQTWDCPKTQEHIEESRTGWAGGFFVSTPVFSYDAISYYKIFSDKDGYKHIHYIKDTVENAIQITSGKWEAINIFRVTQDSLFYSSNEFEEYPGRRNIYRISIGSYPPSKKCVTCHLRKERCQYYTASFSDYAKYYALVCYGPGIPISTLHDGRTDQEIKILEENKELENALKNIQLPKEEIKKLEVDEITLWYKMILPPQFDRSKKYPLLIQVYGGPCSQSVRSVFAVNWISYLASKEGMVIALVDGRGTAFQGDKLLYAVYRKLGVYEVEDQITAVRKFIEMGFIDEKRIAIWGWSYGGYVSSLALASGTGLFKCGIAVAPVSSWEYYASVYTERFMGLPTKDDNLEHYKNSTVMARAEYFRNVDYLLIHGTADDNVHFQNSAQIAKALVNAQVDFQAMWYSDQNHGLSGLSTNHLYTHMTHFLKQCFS

Sequence of Prolyl endopeptidase, Prolyl Oligopeptidase (hPREP) (P48147 whole entry): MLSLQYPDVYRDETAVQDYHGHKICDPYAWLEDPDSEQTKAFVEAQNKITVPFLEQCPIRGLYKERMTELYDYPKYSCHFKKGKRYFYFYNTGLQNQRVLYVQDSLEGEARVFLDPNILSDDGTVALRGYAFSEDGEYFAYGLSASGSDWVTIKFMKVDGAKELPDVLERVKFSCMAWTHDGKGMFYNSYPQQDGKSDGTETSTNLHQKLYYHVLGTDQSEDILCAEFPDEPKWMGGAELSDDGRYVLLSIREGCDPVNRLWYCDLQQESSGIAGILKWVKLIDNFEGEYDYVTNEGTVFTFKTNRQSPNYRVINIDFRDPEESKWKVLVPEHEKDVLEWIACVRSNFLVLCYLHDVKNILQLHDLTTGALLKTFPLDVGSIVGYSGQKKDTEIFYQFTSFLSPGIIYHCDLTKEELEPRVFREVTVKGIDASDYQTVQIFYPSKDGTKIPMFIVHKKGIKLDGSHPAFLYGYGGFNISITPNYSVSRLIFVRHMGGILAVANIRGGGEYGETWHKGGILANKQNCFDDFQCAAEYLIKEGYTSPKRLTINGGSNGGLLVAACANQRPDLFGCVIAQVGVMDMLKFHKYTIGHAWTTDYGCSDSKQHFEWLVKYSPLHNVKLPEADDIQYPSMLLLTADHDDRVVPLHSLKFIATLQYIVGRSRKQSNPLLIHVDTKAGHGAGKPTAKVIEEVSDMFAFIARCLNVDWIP

Compound	IC50 [1]	IC50 [2]	solubility (Kinetic solubility)	rHep CLint [3]	hFAP Binding assay k(off) (hFAP (M39-A757))	hFAP Binding assay k(on) (hFAP (M39-A757))	Kd (hFAP (M39-A757))
C[C@H]1CN(c2ccc3nccc(C(=O)NCC(=O)N4CSC[C@H]4C#N)c3c2)C[C@H](C)O1 [Example 78, N-(2-((R)-4-Cyanothiazolidin-3-yl)-2-oxoethyl)-6-((2S,6S)-2,6-dimethyl-morpholino)quinoline-4-carboxamide]	890 nM				0.00010 s⁻¹	880000 M⁻¹ s⁻¹	
C[C@H]1OCCN(c2ccc3nccc(C(=O)NCC(=O)N4CSC[C@H]4C#N)c3c2)[C@H]1C [Example 81, N-(2-((R)-4-Cyanothiazolidin-3-yl)-2-oxoethyl)-6-((2R,3S)-2,3-dimethyl-morpholino)quinoline-4-carboxamide]	1700 nM				0.000063 s⁻¹	1400000 M⁻¹ s⁻¹	
C[C@@H]1[C@@H](C)OCCN1c1ccc2nccc(C(=O)NCC(=O)N3CSC[C@H]3C#N)c2c1 [Example 83, N-(2-((R)-4-Cyanothiazolidin-3-yl)-2-oxoethyl)-6-((2R,3R)-2,3-dimethyl-morpholino)quinoline-4-carboxamide]	640 nM				0.000064 s⁻¹	1700000 M⁻¹ s⁻¹	
C[C@@H]1CN(c2ccc3nccc(C(=O)NCC(=O)N4CSC[C@H]4C#N)c3c2)[C@H](C)CO1 [Example 87, N-(2-((R)-4-Cyanothiazolidin-3-yl)-2-oxoethyl)-6-((2R,5R)-2,5-dimethyl-morpholino)quinoline-4-carboxamide]	760 nM				0.00011 s⁻¹	2800000 M⁻¹ s⁻¹	
COC[C@H]1COCCN1c1ccc2nccc(C(=O)NCC(=O)N3CSC[C@H]3C#N)c2c1 [Example 89, N-(2-((R)-4-Cyanothiazolidin-3-yl)-2-oxoethyl)-6-((S)-3-(methoxymethyl)-morpholino)quinoline-4-carboxamide]	1300 nM				0.00015 s⁻¹	3600000 M⁻¹ s⁻¹	
C[C@H]1COCCN1c1ccc2nccc(C(=O)NCC(=O)N3CSC[C@H]3C#N)c2c1 [Example 102, N-(2-((R)-4-Cyanothiazolidin-3-yl)-2-oxoethyl)-6-((S)-3-methyl-morpholino)quinoline-4-carboxamide]	680 nM				0.000080 s⁻¹	2000000 M⁻¹ s⁻¹	
CC1(C)COCCN1c1ccc2nccc(C(=O)NCC(=O)N3CSC[C@H]3C#N)c2c1 [Example 107, (R)—N-(2-(4-Cyanothiazolidin-3-yl)-2-oxoethyl)-6-(3,3-dimethyl-morpholino)quinoline-4-carboxamide]	1100 nM				0.00016 s⁻¹	1900000 M⁻¹ s⁻¹	
C[C@@H]1COCCN1c1ccc2nccc(C(=O)NCC(=O)N3CSC[C@H]3C#N)c2c1 [Example 108, N-(2-((R)-4-Cyanothiazolidin-3-yl)-2-oxoethyl)-6-((R)-3-methyl-morpholino)quinoline-4-carboxamide]	1000 nM				0.000050 s⁻¹	1400000 M⁻¹ s⁻¹	
Cc1cc(C(=O)NCC(=O)N2CSC[C@H]2C#N)c2cc(N3CCOCC3)ccc2n1 [Example 109, (R)—N-(2-(4-Cyanothiazolidin-3-yl)-2-oxoethyl)-2-methyl-6-morpholino-quinoline-4-carboxamide]					0.0099 s⁻¹	1200000 M⁻¹ s⁻¹	
CCOC1(C)CN(c2ccc3nccc(C(=O)NCC(=O)N4CSC[C@H]4C#N)c3c2)C1 [Example 152, (R)—N-(2-(4-Cyanothiazolidin-3-yl)-2-oxoethyl)-6-(3-ethoxy-3-methyl-azetidin-1-yl)quinoline-4-carboxamide]	690 nM				0.000014 s⁻¹	1000000 M⁻¹ s⁻¹	
N#C[C@@H]1CSCN1C(=O)CNC(=O)c1ccnc2ccc(N3CC4(CCO4)C3)cc12 [Example 153, (R)—N-(2-(4-Cyanothiazolidin-3-yl)-2-oxoethyl)-6-(1-oxa-6-azaspiro[3.3]heptan-6-yl)quinoline-4-carboxamide]	540 nM				0.000085 s⁻¹	5300000 M⁻¹ s⁻¹	
C[C@]1(O)CCN(c2ccc3nccc(C(=O)NCC(=O)N4CSC[C@H]4C#N)c3c2)C1 [Example 168, N-(2-((R)-4-Cyanothiazolidin-3-yl)-2-oxoethyl)-6-((S)-3-hydroxy-3-methylpyrrolidin-1-yl)quinoline-4-carboxamide]	630 nM	0.16 nM			0.000048 s⁻¹	1600000 M⁻¹ s⁻¹	0.032 nM
CC(=O)NCC1(C)CN(c2ccc3nccc(C(=O)NCC(=O)N4CSC[C@H]4C#N)c3c2)C1 [Example 181, (R)-6-(3-(Acetamidomethyl)-3-methylazetidin-1-yl)-N-(2-(4-cyano-thiazolidin-3-yl)-2-oxoethyl)quinoline-4-carboxamide]	1600 nM				0.000027 s⁻¹	180000 M⁻¹ s⁻¹	

Second part, the molecule after the results:

IC50 [1]	IC50 [2]	solubility (Kinetic solubility)	rHep CLint [3]	hFAP Binding assay k(off) (hFAP (M39-A757))	hFAP Binding assay k(on) (hFAP (M39-A757))	Kd (hFAP (M39-A757))	Compound
5.2 nM							Cc1ccc2c(C(=O)NCC(=O)N3CSC[C@H]3C#N)ccnc2c1 [B, (R)—N-(2-(4-cyanothiazolidin-3-yl)-2-oxoethyl)-7-methylquinoline-4-carboxamide, reference compound]
200 nM	0.51 nM	120 µM (≈ 55.1 µg/mL)	100 μL/min/1E6	18 s⁻¹	40000000000 M⁻¹ s⁻¹	0.38 nM	N#C[C@@H]1CSCN1C(=O)CNC(=O)c1ccnc2ccc(N3CCOc4ccccc43)cc12 [Example 6, (R)—N-(2-(4-Cyanothiazolidin-3-yl)-2-oxoethyl)-6-(2,3-dihydro-4H-benzo[b][1,4]oxazin-4-yl)quinoline-4-carboxamide]
140 nM							N#C[C@@H]1CSCN1C(=O)CNC(=O)c1ccnc2ccc(N3CCCC3=O)cc12 [Example 11, (R)—N-(2-(4-Cyanothiazolidin-3-yl)-2-oxoethyl)-6-(2-oxopyrrolidin-1-yl)-quinoline-4-carboxamide]
470 nM				0.000047 s⁻¹	940000 M⁻¹ s⁻¹		CC1(C)CN(c2ccc3nccc(C(=O)NCC(=O)N4CSC[C@H]4C#N)c3c2)C1 [Example 22, (R)—N-(2-(4-Cyanothiazolidin-3-yl)-2-oxoethyl)-6-(3,3-dimethylazetidin-1-yl)quinoline-4-carboxamide]
270 nM				0.00016 s⁻¹	5600000 M⁻¹ s⁻¹		N#C[C@@H]1CSCN1C(=O)CNC(=O)c1ccnc2ccc(N3CCC(F)(F)C3)cc12 [Example 47, (R)—N-(2-(4-Cyanothiazolidin-3-yl)-2-oxoethyl)-6-(3,3-difluoropyrrolidin-1-yl)quinoline-4-carboxamide]
260 nM				0.00021 s⁻¹	3200000 M⁻¹ s⁻¹		N#C[C@@H]1CSCN1C(=O)CNC(=O)c1ccnc2ccc(N3CCCOCC3)cc12 [Example 91, (R)—N-(2-(4-Cyanothiazolidin-3-yl)-2-oxoethyl)-6-(1,4-oxazepan-4-yl)-quinoline-4-carboxamide]
330 nM				0.00012 s⁻¹	1400000 M⁻¹ s⁻¹		Cn1cc(-c2ccc3nccc(C(=O)NCC(=O)N4CSC[C@H]4C#N)c3c2)cn1 [Example 129, (R)—N-(2-(4-Cyanothiazolidin-3-yl)-2-oxoethyl)-6-(1-methyl-1H-pyrazol-4-yl)quinoline-4-carboxamide]
470 nM				0.000075 s⁻¹	2500000 M⁻¹ s⁻¹		CCC1(F)CN(c2ccc3nccc(C(=O)NCC(=O)N4CSC[C@H]4C#N)c3c2)C1 [Example 138, (R)—N-(2-(4-Cyanothiazolidin-3-yl)-2-oxoethyl)-6-(3-ethyl-3-fluoro-azetidin-1-yl)quinoline-4-carboxamide]
390 nM				0.000050 s⁻¹	1600000 M⁻¹ s⁻¹		N#C[C@@H]1CSCN1C(=O)CNC(=O)c1ccnc2ccc(N3CC[C@@H](CO)C3)cc12 [Example 220, N-(2-((R)-4-Cyanothiazolidin-3-yl)-2-oxoethyl)-6-((R)-3-(hydroxymethyl)-pyrrolidin-1-yl)quinoline-4-carboxamide]
410 nM				0.000046 s⁻¹	8500000 M⁻¹ s⁻¹		N#C[C@@H]1CSCN1C(=O)CNC(=O)c1ccnc2ccc(N3CC[C@H](CO)C3)cc12 [Example 221, N-(2-((R)-4-Cyanothiazolidin-3-yl)-2-oxoethyl)-6-((S)-3-(hydroxymethyl)-pyrrolidin-1-yl)quinoline-4-carboxamide]
